According to BindingDB's records for doi:10.1016/0014-2999(96)00088-x (University Clinic For Psychiatry, 1996):
Values joined by “and” are separate entries in the source; they are usually repeats but may differ in a detail not shown here. Equal values may be shown once.

How the values were obtained:
[1] = molecular target: T1, Gamma-aminobutyric acid receptor subunit alpha-1 (Homo sapiens, UniProt P14867)
T1 sequence (P14867 whole entry): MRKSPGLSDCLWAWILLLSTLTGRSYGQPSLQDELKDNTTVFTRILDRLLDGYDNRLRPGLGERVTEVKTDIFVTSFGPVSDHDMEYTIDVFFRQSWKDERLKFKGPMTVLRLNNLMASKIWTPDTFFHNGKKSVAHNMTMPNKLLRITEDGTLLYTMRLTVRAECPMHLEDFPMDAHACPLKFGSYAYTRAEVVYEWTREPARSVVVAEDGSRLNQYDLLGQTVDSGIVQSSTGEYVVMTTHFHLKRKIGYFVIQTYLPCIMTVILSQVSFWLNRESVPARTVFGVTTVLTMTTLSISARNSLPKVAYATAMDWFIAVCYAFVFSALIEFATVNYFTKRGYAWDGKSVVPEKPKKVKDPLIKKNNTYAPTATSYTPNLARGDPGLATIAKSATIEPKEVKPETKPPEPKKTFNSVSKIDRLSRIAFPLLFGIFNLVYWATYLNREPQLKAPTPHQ

[2] = molecular target: Gamma-aminobutyric acid receptor subunit alpha-4 (Homo sapiens, UniProt P48169)
Chain of Gamma-aminobutyric acid receptor subunit alpha-4 (P48169 whole entry): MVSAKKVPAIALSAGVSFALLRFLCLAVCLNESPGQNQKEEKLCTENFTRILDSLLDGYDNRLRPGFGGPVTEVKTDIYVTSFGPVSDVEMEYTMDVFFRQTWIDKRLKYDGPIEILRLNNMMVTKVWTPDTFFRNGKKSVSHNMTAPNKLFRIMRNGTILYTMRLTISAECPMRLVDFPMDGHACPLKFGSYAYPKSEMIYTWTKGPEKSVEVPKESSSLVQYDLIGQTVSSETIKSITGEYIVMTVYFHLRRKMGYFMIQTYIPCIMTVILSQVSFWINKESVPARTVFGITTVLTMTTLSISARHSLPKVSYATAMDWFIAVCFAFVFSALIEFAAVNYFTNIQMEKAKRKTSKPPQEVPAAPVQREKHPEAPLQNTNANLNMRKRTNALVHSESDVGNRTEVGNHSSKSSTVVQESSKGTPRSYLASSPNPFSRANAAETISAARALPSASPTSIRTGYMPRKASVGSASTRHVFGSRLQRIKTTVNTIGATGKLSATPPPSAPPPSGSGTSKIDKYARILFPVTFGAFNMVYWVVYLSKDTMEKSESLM

| SMILES | Ki [1] | Ki [2] |
| --- | --- | --- |
| O=c1c2cnc3ccccc3c2[nH]n1-c1ccccc1 | 0.11 nM | 11.9 nM |
| Cc1nnc2ccc(-c3cccc(C(F)(F)F)c3)nn12 | 65 nM | > 10000 nM |
| COC(=O)c1cc2c(cn1)[nH]c1ccccc12 | 0.5 nM | 640 nM |
| COCc1c(C(=O)OC(C)C)ncc2[nH]c3ccc(OCc4ccccc4)cc3c12 |  | 1060 nM |
| CCOC(=O)c1cc2c(cn1)[nH]c1ccccc12 | 0.6 nM |  |
| O=c1c2cnc3ccccc3c2[nH]n1-c1ccc(Cl)cc1 | 0.26 nM | 59 nM |
| COc1ccc(-n2[nH]c3c(cnc4ccccc43)c2=O)cc1 [2-(4-Methoxy-phenyl)-2,5-dihydro-pyrazolo[4,3-c]quinolin-3-one (CGS 9895)] | 0.09 nM | 4 nM |
| CC(C)(C)OC(=O)c1ncn2c1C1CCCN1C(=O)c1c(Br)cccc1-2 (centres undefined) [8-Bromo-7-oxo-3b,4,5,6-tetrahydro-7H-2,6a,11b-triaza-benzo[g]cyclopenta[e]azulene-3-carboxylic acid tert-butyl ester] | 0.45 nM | 36 nM and 22.5 nM |
| Cc1ccc(-c2nc3ccc(C)cn3c2CC(=O)N(C)C)cc1 [Ambien] |  | > 10000 nM |
| CNC(=O)c1cc2c(cn1)[nH]c1ccccc12 [CAS_4375] | 160 nM | > 10000 nM |
| CCCOC(=O)c1cc2c(cn1)[nH]c1ccccc12 [CAS_123662] | 7.1 nM | 922 nM |
| COc1ccc(-n2[nH]c3c4c(ncc3c2=O)CCCCC4)cc1 [CGS-20625] | 0.15 nM | 22.4 nM and 77 nM |
| CCc1c(C(=O)OC)ncc2[nH]c3cc(OC)c(OC)cc3c12 [NSC_104999] | 7.5 nM | 11.3 nM and 20 nM |
| CCOC(=O)c1ncn2c1CN(C)C(=O)c1cc(N=[N+]=[N-])ccc1-2 [RO-154513] | 8.1 nM |  |
